Patent publication US8680113B2, “BMI-1 protein expression modulators” (PTC Therapeutics, Inc., priority 2008, dated 2014)
pEC50, pIC50: −log10 of the molar value.

What was measured:
Bmi-1 [1] = experiment: Cell Model Assay: Bmi-1 expression in U87-MG; format: cell-based; details: U87-MG (glioblastoma)
Method: (§1) Using assay conditions known to those skilled in the art, the ability of the compounds described herein to reduce Bmi-1 expression in HT1080 (fibrosarcoma), U87-MG (glioblastoma), T98G (glioblastoma), K562 (chronic myelogenous leukemia) and KG1 (acute myelogenous leukemia) cell lines was tested (at test compound concentrations calculated from the ELISA assay data shown in Example 1) compared to puromycin as a control to provide the EC50 values shown in Table 2. The term “ND” means that data was not determined.

Bmi-1 [2] = experiment: Cell Model Assay: Bmi-1 expression in HT1080; format: cell-based, human; details: HT1080 (fibrosarcoma)
Method: as §1

Bmi-1 [3] = experiment: Cell Model Assay: Bmi-1 expression in K562; format: cell-based; details: K562 (chronic myelogenous leukemia)
Method: as §1

Bmi-1 [4] = experiment: Cell Model Assay: Bmi-1 expression in T98G; format: cell-based; details: T98G (glioblastoma)
Method: as §1

Bmi-1 [5] = experiment: Cell Model Assay: Bmi-1 expression in KG1; format: cell-based; details: KG1 (acute myelogenous leukemia)
Method: as §1

MM cell line = experiment: Multiple Myeloma Assay; format: cell-based; details: 72 hrs in culture
MCL-Rec1 = experiment: Mantle Cell Lymphoma Assay: cytotoxicity, Rec-1; format: cell-based; details: 72 hrs
From the text: (§2) MCL cell lines Jeko, Mino, and Rec-1 were provided by American Type Culture Collection: The Bioresource Center (Manassas, Va.). […] Carlsbad, Calif.) in T-75 culture flasks. Cell concentration was maintained between 2 to 3×10^5 cells/mL. Early passage cells (passages 2-4) were used for all experiments. Ficoll-Histopaque density sedimentation (Sigma Aldrich) was used for separation of debris and purification of cell lines prior to experiments. […] The cytotoxic effect of test compounds on the MCL-cell lines was assessed by measuring cell concentration and cell viability using a Beckman Coulter Vi-Cell Counter. Controls and treated cells were harvested and counted at day 3.

MCL-Jeko = experiment: Mantle Cell Lymphoma Assay: cytotoxicity, Jeko; format: cell-based; details: MCL-Jeko, 72 hrs
From the text: as §2

MCL-Mino = experiment: Mantle Cell Lymphoma Assay: cytotoxicity, Mino; format: cell-based; details: MCL-Mino, 72 hrs
From the text: as §2

Bmi-1 [6] = experiment: Sandwich ELISA Assay (Bmi-1 ELISA in HT-1080 cells); format: cell-based, human
How it was run: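 HT-1080 cells (8000/well) were treated with compounds in 0.5% final DMSO for 40-48 h at 37°C and then lysed. Bmi-1 in lysates was measured by sandwich ELISA: overnight capture at 4°C on mouse monoclonal, rabbit anti-Bmi-1 detection, HRP anti-rabbit, TMB. OD450 was read with an OD570 reference against a recombinant GST-Bmi-1 standard curve (0-8000 pg/mL).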

Structure (SMILES): COc1ccc(C[C@H](N)C(=O)N[C@H]2[C@@H](O)[C@H](n3cnc4c(N(C)C)ncnc43)O[C@@H]2CO)cc1 [Control, puromycin, reference compound]
- pEC50 (Bmi-1 [1]): 6.38
- pEC50 (Bmi-1 [2]): 6.35
- pEC50 (Bmi-1 [3]): 6.31
- pEC50 (Bmi-1 [4]): 6.64
- pEC50 (Bmi-1 [5]): 5.96

Structure (SMILES): COc1cc(Br)c(Nc2nc(-c3cnc4ccc(Cl)cn34)cs2)c(Br)c1 [Cpd 24, 4-(6-chloroimidazo[1,2-a]pyridine-3-yl)-N-(2,6-dibromo-4-methoxyphenyl)thiazol-2-amine]
- Cell Concentration, MM cell line (MM cell line; dose 0.004 μM): 1.37 ± 0.03 ×10^6
- Cell Concentration, MM cell line (MM cell line; dose 0.037 μM): 1.38 ± 0.04 ×10^6
- Cell Concentration, MM cell line (MM cell line; dose 0.11 μM): 1.23 ± 0.01 ×10^6
- Cell Concentration, MM cell line (MM cell line; dose 0.33 μM): 0.59 ± 0.04 ×10^6
- Cell Concentration, MM cell line (MM cell line; dose 1 μM): 0.34 ± 0.14 ×10^6
- Cell Concentration, MM cell line (MM cell line; dose 3 μM): 0.17 ± 0.01 ×10^6
- pEC50 (Bmi-1 [2]): 6.51
- Cell Concentration (×10^6) (MCL-Rec1; MCL-Rec1, 0.004 μM): 0.36 ± 0.02 ×10^6
- Cell Concentration (×10^6) (MCL-Rec1; MCL-Rec1, 0.037 μM): 0.34 ± 0.01 ×10^6
- Cell Concentration (×10^6) (MCL-Rec1; MCL-Rec1, 0.11 μM): 0.34 ± 0.01 ×10^6
- Cell Concentration (×10^6) (MCL-Rec1; MCL-Rec1, 0.33 μM): 0.31 ± 0.01 ×10^6
- Cell Concentration (×10^6) (MCL-Rec1; MCL-Rec1, 1 μM): 0.06 ± 0.01 ×10^6
- Cell Concentration (×10^6) (MCL-Rec1; MCL-Rec1, 3 μM): 0.01 ± 0.00 ×10^6
- pEC50 (Bmi-1 [3]): 7.12
- Cell Concentration (×10^6) (MCL-Jeko; 0.004 μM): 1.95 ± 0.04 ×10^6
- Cell Concentration (×10^6) (MCL-Jeko; 0.037 μM): 1.94 ± 0.02 ×10^6
- Cell Concentration (×10^6) (MCL-Jeko; 0.11 μM): 1.92 ± 0.01 ×10^6
- Cell Concentration (×10^6) (MCL-Jeko; 0.33 μM): 1.80 ± 0.03 ×10^6
- Cell Concentration (×10^6) (MCL-Jeko; 1 μM): 0.76 ± 0.27 ×10^6
- Cell Concentration (×10^6) (MCL-Jeko; 3 μM): 0.14 ± 0.01 ×10^6
- Cell Concentration (×10^6) (MCL-Mino; 0.004 μM): 0.63 ± 0.01 ×10^6
- Cell Concentration (×10^6) (MCL-Mino; 0.037 μM): 0.63 ± 0.01 ×10^6
- Cell Concentration (×10^6) (MCL-Mino; 0.11 μM): 0.62 ± 0.01 ×10^6
- Cell Concentration (×10^6) (MCL-Mino; 0.33 μM): 0.55 ± 0.01 ×10^6
- Cell Concentration (×10^6) (MCL-Mino; 1 μM): 0.28 ± 0.02 ×10^6
- Cell Concentration (×10^6) (MCL-Mino; 3 μM): 0.05 ± 0.01 ×10^6
- pIC50 (Bmi-1 [6]): > 6.30
- pEC50 (Bmi-1 [5]): 6.92

Structure (SMILES): Cc1nc2ccc(Cl)cn2c1-c1csc(Nc2ccc(I)cc2)n1 [Cpd 29, 4-(6-chloro-2-methylimidazo[1,2-a]pyridin-3-yl)-N-(4-iodophenyl)thiazol-2-amine]
- pEC50 (Bmi-1 [3]): 8.30
- pIC50 (Bmi-1 [6]): > 6.30
- pEC50 (Bmi-1 [5]): 6.52

Structure (SMILES): COc1cccc(Nc2nccc(-c3cnc4ccccn34)n2)c1 [Cpd 28, 4-(imidazo[1,2-a]pyridine-3-yl)-N-(3-methoxyphenyl)pyrimidin-2-amine]
- pEC50 (Bmi-1 [3]): 6.58
- pIC50 (Bmi-1 [6]): > 6.30
- pEC50 (Bmi-1 [5]): 7.32

Structure (SMILES): Cc1nc2ccc(Cl)cn2c1-c1csc(Nc2ccc3c(c2)OCO3)n1 [Cpd 30, N-(benzo[d][1,3]dioxol-5-yl)-4-(6-chloro-2-methylimidazo[1,2-a]pyridin-3-yl)thiazol-2-amine]
- pEC50 (Bmi-1 [2]): 8.40
- pEC50 (Bmi-1 [3]): > 8.40
- pIC50 (Bmi-1 [6]): > 6.30
- pEC50 (Bmi-1 [5]): 7.32
